Where two headings read alike, the source gives them in different places.
drug retention in tumor (12 hours after intratumoral injection): 16%
retention rate of Ara-C in tumor (24 hours after intratumoral injection): 0%
retention rate of Ara-C in tumor (fifteen minutes after intratumoral injection): 100%
retention rate of Ara-C in tumor (four hours after intratumoral injection): 16%
Structure (SMILES): Nc1ccn([C@@H]2O[C@H](CO)[C@@H](O)[C@@H]2O)c(=O)n1 [Ara-C alone, Cytosine Arabinoside]

Reference: US11110303B2, “Hapten-enhanced chemoimmunotherapy by ultra-minimum incision personalized intratumoral chemoimmunotherapy” (priority 2014, dated 2021)
